Counter-ions that a name gives are not always drawn. The source made the active and inactive calls.
How the values were obtained:
[1] = off-target signal loss in HeLa-CEM21 co-culture – HeLa F-luc CTL cells, cherry-picked, counter-screen for HIV-1 Env fusion inhibitor project, dose response (AID 652040); type: functional, cell-based;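 further: potency for signal decrease marking cytotoxic or nonspecific inhibition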
Cytochrome P450 2D6 = Cytochrome P450 2D6 (Homo sapiens, UniProt P10635);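 further: CYP2D6 member of a cytochrome P450 panel assay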
Sequence of Cytochrome P450 2D6 (P10635 whole entry): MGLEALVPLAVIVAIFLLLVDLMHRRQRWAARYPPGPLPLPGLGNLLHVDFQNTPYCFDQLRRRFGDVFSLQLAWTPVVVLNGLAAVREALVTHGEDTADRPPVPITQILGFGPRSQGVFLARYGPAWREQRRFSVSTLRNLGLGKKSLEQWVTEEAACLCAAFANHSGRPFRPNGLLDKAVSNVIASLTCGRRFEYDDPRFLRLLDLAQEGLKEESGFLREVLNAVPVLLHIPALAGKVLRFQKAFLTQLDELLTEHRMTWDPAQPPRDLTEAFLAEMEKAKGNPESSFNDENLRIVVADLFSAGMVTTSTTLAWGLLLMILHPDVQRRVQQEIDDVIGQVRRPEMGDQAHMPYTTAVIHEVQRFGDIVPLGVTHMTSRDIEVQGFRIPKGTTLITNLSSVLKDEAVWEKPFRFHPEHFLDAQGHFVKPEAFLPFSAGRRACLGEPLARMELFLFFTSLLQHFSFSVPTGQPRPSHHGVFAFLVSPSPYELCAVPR

[2] = Vero cell cytotoxicity, dose response, cytotoxicity control for Vif-APOBEC3G degradation inhibitor project, Vero cells (AID 1117358); type: functional; conditions: Human immunodeficiency virus 1, Vero
[3] = microbe, parasite or virus in culture; type: functional; conditions: Mycobacterium tuberculosis
Cytochrome P450 1A2 = biological target: T1, Cytochrome P450 1A2 (Homo sapiens, UniProt P05177);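 further: PubChem cytochrome P450 panel assay, CYP1A2 panel member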
T1 sequence (P05177 whole entry): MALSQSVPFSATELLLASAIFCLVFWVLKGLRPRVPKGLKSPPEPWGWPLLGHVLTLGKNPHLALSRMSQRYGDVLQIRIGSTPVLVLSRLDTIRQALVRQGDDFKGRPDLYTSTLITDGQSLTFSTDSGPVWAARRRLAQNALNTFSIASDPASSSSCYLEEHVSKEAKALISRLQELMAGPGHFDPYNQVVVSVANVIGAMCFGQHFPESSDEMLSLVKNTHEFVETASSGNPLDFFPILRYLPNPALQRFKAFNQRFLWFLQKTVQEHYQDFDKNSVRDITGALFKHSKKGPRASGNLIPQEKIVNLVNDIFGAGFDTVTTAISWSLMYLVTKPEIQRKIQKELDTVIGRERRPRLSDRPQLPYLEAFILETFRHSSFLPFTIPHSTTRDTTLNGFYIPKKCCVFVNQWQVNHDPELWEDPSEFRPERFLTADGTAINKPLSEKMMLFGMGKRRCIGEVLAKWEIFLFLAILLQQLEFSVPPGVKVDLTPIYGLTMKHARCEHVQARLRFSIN

[4] = control 3'UTR Renilla luciferase suppression, dose response, counter-screen for Shn3 inhibitor project, cell-based, Clone20-Shn3RL, cherry-picked (AID 624133); type: functional
Cytochrome P450 2C9 = Cytochrome P450 2C9 (Homo sapiens, UniProt P11712)
Sequence of Cytochrome P450 2C9 (P11712 whole entry, the tested form may be a part): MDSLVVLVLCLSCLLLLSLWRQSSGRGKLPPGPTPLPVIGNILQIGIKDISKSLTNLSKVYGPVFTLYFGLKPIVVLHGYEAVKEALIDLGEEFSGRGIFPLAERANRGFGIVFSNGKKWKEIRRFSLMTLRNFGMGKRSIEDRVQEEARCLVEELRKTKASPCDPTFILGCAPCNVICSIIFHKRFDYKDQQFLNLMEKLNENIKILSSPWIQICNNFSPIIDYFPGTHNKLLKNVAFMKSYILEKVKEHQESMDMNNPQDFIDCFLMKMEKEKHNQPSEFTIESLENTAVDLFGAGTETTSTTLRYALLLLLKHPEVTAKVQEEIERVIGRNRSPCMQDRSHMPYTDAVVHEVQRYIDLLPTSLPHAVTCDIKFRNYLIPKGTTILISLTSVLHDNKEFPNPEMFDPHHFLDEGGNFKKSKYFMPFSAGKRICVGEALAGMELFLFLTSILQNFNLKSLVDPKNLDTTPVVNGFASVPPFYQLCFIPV

[5] = ZM109 Env clade C HIV-1 fusion inhibitors, dose response, HeLa effector, CEM target cells, luciferase, cherry-pick (AID 652058); type: functional, cell-based
[6] = inhibitors of HIV Env-driven cell fusion, dose response, cherry-pick (AID 652057); type: functional, cell-based
[7] = HepG2 cell cytotoxicity, dose response, cytotoxicity control for Shn3 inhibitor project, CellTiter-Glo, cherry-picked (AID 624134); type: functional, cell-based
[8] = inhibitors of clade B AD8 Env fusion, dose response, cell-based, cherry-pick (AID 652062); type: functional;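 further: luciferase signal from cell-cell fusion driven by HIV-1 clade B AD8 Env; potency is for inhibitors of fusion seen as a drop in luminescence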
[9] = CEM21 lymphoblast cell cytotoxicity, dose response, cytotoxicity control for viral fusion inhibitor project, CellTiter-Glo luminescence, cherry-picked (AID 652042); type: functional, cell-based;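 further: potency for signal decrease meaning cytotoxicity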
[10] = Shn3 3'UTR reporter inhibitors, dose response, cell-based, Clone20 osteoblasts, firefly luciferase, cherry-picked (AID 624132); type: functional;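 further: firefly luciferase luminescence from reporter carrying the Shn3 3'UTR in osteoblasts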
cells = type: functional, cell-based; conditions: INS-1E
[11] = Dose-response inhibition of insulin secretion in a rat insulinoma line at 5 mM glucose (AID 1117331); type: functional, cell-based; conditions: INS-1E
[12] = biological target: G-protein coupled receptor 183 (Homo sapiens, UniProt P32249); assay: SAR confirmation of small molecule antagonists of the EBI2 receptor via a luminescent beta-arrestin assa.; type: functional
Sequence of G-protein coupled receptor 183 (P32249 whole entry): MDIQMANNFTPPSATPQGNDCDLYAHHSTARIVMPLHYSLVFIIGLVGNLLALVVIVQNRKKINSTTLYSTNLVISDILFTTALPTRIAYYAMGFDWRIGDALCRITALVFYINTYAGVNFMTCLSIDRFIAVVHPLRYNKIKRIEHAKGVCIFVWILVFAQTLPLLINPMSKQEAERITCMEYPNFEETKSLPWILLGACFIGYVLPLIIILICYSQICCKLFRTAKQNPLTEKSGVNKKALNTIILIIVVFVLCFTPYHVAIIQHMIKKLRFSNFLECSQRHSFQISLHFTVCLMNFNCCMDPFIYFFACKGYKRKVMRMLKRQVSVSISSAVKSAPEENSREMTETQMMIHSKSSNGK

[13] = cytotoxicity in COV362 ovarian cancer cells, dose response, cytotoxicity control for PAX8 inhibitor project, cell-based, plate reader, dry powder, SA12 (AID 743144); type: functional
[14] = biological target: T2, Replicative DNA helicase DnaB (Mycobacterium tuberculosis, UniProt P9WMR3); assay: DnaB intein splicing inhibitors, dose response, biochemical, cell-free fluorescence (AID 449749); type: functional
T2 sequence (P9WMR3 whole entry): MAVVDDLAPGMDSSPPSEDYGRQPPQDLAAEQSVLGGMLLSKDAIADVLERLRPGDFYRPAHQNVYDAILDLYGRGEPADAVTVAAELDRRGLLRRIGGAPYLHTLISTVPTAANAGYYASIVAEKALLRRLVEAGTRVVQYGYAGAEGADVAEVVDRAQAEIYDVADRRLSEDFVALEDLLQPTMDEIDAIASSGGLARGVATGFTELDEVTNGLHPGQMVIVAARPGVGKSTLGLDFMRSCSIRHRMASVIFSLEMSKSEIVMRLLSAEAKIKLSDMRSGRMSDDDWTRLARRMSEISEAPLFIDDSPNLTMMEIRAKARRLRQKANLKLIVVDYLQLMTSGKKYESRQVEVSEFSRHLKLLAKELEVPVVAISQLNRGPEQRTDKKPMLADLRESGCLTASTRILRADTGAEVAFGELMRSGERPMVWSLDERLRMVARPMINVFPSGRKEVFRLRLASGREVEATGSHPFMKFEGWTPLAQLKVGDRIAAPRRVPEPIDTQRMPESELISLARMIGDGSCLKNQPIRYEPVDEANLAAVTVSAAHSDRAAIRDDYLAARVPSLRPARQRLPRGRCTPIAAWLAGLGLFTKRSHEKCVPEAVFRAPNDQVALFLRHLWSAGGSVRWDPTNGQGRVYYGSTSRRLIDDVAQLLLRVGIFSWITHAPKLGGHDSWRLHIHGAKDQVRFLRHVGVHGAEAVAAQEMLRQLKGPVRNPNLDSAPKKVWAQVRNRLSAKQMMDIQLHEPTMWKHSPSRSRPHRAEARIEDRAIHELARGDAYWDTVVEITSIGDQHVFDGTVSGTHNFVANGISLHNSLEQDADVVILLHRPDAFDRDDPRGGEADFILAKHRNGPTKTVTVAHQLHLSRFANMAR

[15] = biological target: T3, Hepatocyte nuclear factor 4-alpha (Homo sapiens, UniProt P41235); type: functional, cell-based;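 further: biochemical luminescence-based dose-response counterscreen measuring inhibition of HNF4 dimerization, run alongside a screen for blockers of ABHD5–perilipin-5 interaction; split luciferase complementation of HNF4 fusion proteins in cell lysate measuring dimerization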
T3 sequence (P41235 whole entry): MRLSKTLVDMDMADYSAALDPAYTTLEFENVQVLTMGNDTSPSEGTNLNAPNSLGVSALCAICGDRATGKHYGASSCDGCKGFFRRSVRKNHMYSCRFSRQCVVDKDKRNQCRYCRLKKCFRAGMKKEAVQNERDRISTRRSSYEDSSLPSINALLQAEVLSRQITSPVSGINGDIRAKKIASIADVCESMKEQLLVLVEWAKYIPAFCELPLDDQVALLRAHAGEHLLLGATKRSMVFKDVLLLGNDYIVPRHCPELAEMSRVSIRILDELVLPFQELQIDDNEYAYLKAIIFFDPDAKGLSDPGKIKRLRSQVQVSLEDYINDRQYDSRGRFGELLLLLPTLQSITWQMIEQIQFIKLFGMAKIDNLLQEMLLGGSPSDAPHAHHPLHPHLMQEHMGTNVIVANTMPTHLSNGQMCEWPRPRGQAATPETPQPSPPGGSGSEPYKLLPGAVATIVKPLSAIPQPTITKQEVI

[16] = PAX5 activity inhibitors, dose response, selectivity assay for PAX8 inhibitor project, cell-based, plate reader, dry powder samples (AID 743047); type: functional;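 further: HEK293 cells carrying a Pax5 driven CD19 promoter luciferase reporter; potency of inhibitors that lower reporter luminescence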
[17] = IGROV1 ovarian cancer cell cytotoxicity, dose response, PAX8 inhibitor project, plate reader, dry powder samples (AID 743043); type: functional, cell-based; conditions: IGROV-1
INS1 = assay: beta cell apoptosis inhibitors, cytokine rescue, dose response, luminescence, retest (AID 449756); type: functional, cell-based; conditions: Rattus norvegicus;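 further: cell death triggered by IL-1 beta plus TNF-alpha plus IFN-gamma mixture; protective hits raise ATP signal compared with cytokine alone wells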
[18] = cytotoxicity in OVCAR4 cells, dose response, cytotoxicity control for PAX8 inhibitor project, cell-based, plate reader, dry powder, SA11 (AID 743150); type: functional; conditions: OVCAR-4
Protein RecA = biological target: T4, Protein RecA (Mycobacterium tuberculosis, UniProt P9WHJ3); assay: Fluorescence Cell-Free Homogeneous Dose Retest to Identify Inhibitors of RecA-Intein Splicing Activity. [Related pubchem assays (depositor defined):AID2097, AID2223, AID489010, AID492950]; type: functional
T4 sequence (P9WHJ3 whole entry): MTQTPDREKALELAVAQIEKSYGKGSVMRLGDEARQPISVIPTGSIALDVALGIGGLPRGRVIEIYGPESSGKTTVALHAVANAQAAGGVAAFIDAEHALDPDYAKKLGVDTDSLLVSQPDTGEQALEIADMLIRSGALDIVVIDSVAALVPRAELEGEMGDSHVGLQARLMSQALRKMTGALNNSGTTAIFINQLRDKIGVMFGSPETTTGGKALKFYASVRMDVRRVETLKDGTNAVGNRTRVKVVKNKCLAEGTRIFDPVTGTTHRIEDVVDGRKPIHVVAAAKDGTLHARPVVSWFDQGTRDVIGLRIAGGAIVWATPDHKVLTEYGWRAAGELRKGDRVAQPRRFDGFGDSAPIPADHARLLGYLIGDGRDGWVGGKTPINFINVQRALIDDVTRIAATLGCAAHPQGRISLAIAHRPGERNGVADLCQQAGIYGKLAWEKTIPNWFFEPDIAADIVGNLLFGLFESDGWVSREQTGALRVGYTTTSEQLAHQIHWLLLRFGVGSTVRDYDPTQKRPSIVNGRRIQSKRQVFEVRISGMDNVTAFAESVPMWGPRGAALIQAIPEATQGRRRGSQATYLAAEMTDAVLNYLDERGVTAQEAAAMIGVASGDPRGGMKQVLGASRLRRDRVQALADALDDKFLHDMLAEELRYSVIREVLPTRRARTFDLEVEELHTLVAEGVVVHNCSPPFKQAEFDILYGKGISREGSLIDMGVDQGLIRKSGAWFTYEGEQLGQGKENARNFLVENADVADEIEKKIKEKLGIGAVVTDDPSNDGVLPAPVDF

[19] = biological target: Neurotensin receptor type 1 (Homo sapiens, UniProt P30989); type: functional;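 further: Image-based confirmatory dose-response assay measuring agonist activity at NTR1; NTR1-expressing U2OS osteosarcoma cells imaged for beta-arrestin GFP spot formation; agonist potency where compounds increase beta-arrestin recruitment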
Sequence of Neurotensin receptor type 1 (P30989 whole entry): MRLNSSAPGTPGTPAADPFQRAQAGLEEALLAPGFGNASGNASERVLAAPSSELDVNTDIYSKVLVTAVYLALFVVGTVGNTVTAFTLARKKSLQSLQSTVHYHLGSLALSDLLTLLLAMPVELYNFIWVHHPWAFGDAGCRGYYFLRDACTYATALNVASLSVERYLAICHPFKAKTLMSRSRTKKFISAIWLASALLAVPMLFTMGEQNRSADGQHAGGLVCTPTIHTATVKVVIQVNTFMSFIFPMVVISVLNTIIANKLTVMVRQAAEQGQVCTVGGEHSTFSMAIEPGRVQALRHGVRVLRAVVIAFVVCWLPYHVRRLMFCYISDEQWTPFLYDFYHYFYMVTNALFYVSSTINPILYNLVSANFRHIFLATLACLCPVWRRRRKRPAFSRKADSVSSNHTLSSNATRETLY

[20] = cytotoxicity dependent on PAX8, dose response, cell-based, plate reader, dry powder (AID 743049); type: functional
[21] = cytotoxicity in OV-90 ovarian cancer cells, dose response, PAX8 inhibitor project, cell-based, plate reader, dry powder, SA8 (AID 743149); type: functional
[22] = NIH:OVCAR-3 ovarian cancer cell cytotoxicity, dose response, PAX8 inhibitor project, plate reader, dry powder samples (AID 743044); type: functional, cell-based
[23] = IOSE-T80 ovarian epithelial cell cytotoxicity, dose response, cytotoxicity control for PAX8 inhibitor project, plate reader, dry powder samples (AID 743045); type: functional, cell-based
[24] = cytotoxicity in COV434 cells, dose response, cytotoxicity control for PAX8 inhibitor project, cell-based, plate reader, dry powder, SA7 (AID 743145); type: functional
Vero = assay: cells; type: functional; conditions: Chlorocebus sabaeus
[25] = PAX2 cell-based inhibition, dose response, selectivity assay for PAX8 inhibitor project, plate reader, dry powder samples (AID 743048); type: functional;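 further: HEK293 cells carrying a WT1 promoter luciferase reporter driven by expressed Pax2; potency is for inhibition of Pax2 driven reporter signal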
[26] = A2780 ovarian cancer cell cytotoxicity, dose response, cytotoxicity control, plate reader, dry powder samples (AID 743046); type: functional, cell-based
Paired box protein Pax-8 = Paired box protein Pax-8 (Homo sapiens, UniProt Q06710); assay: inhibitors of PAX8-driven TPO luciferase reporter, dose response, RMG-I cells, cherry-pick (AID 687027); type: functional, cell-based;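 further: luciferase reporter driven by Pax8 target thyroperoxidase promoter measured by SteadyGlo luminescence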
Sequence of Paired box protein Pax-8 (Q06710 whole entry): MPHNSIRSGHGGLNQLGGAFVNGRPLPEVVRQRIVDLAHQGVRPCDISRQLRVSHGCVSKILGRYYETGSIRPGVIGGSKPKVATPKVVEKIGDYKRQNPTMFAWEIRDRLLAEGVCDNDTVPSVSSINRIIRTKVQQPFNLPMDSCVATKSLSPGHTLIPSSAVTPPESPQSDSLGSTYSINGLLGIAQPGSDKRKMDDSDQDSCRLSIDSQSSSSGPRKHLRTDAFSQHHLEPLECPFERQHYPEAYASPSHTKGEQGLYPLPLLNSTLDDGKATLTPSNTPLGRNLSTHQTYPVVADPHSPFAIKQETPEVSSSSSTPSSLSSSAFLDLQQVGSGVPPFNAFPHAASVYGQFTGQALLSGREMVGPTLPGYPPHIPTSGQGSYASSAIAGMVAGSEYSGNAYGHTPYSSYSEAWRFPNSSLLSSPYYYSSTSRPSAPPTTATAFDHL

Nc1nc(Cl)cc(N2CCC(c3cc(-c4ccc(Cl)cc4Cl)[nH]n3)CC2)n1
AC50 [1]: > 70 µM (inactive)
AC50 (Cytochrome P450 2D6): 12.6 µM (inconclusive)
CC50 [2]: > 40 µM (active)
CC50 [3]: > 40 µM (active)
AC50 (Cytochrome P450 1A2): 6.31 µM (inconclusive)
AC50 [4]: 5.61 µM (active)
AC50 (Cytochrome P450 2C9): 22.4 µM (inconclusive)
AC50 [5]: 0.394 µM (active)
AC50 [6]: 18.5 µM (active)
AC50 [7]: 62 µM (active)
AC50 [8]: 16.6 µM (active)
AC50 [9]: 36.1 µM (active)
AC50 [10]: 4.94 µM (active)

C=CCOc1ccc(Br)cc1/C=N/O
CC50 [2]: 2.72 µM (active)

CN(C)C/C=C(/c1ccc(Br)cc1)c1cccnc1 [ZIMELDINE HYDROCHLORIDE]
IC50 (cells): > 33.3 µM (inactive)
IC50 [11]: 8.36 µM (inactive)

O=C(/C=C/c1ccc(Br)cc1)N1CCN(Cc2cccc(F)c2)CC1
IC50 [12]: 0.00261 µM (active)

O=C(Nc1ccc(Cl)cc1)/C(=C/c1cccc(O)c1)c1nc2ccccc2s1
AC50 [13]: 5.28 µM (active)
AC50 [14]: > 380 µM (inconclusive)
IC50 [15]: 4.66 µM (active)
AC50 [16]: 7.08 µM (active)
AC50 [17]: 30.7 µM (active)
AC50 (INS1): 3.7 µM (active)
AC50 [4]: 9.54 µM (active)
AC50 [18]: 13.7 µM (active)
EC50 (Protein RecA): 0.481 µM (active)
EC50 [19]: 6.69 µM (active)
AC50 [20]: 4.02 µM (active)
AC50 [21]: 4.14 µM (active)
AC50 [22]: 8.14 µM (active)
AC50 [7]: 9.66 µM (active)
AC50 [23]: 11.5 µM (active)
AC50 [24]: 9.35 µM (active)
CC50 (Vero): 2.37 µM (active)
AC50 [25]: 12.8 µM (active)
AC50 [26]: 15.1 µM (active)
AC50 (Paired box protein Pax-8): 3.92 µM (active)
AC50 [10]: 3.53 µM (active)
